For series [1], the system named is primary articular chondrocytes. As to the kind of experiment: Cell viability by CCK-8 assay. It is filed as cell-based, mouse. The following applies: 72 h, read-out: IC50 (cell viability, toxicity in chondrocytes). As for the experimental part:
The cell viability was evaluated by CCK-8 assay (Dojindo Molecular Technologies). Primary chondrocytes were plated in the 96-well plates and treated with the EP4 antagonists or DMSO for 72 h. A total of 10 μl CCK-8 was added to each well, the cells were incubated in the presence of CCK-8 for 2–3 h. The optical density (OD) of each well at 450 nm was recorded on a Microplate Reader (SPECTRA MAX190). The absorbance values were normalized by subtracting blank values of […]. The cell viability (% of control) is calculated as the percentage of (ODtest − ODblank)/(ODcontrol − ODblank). The 50% inhibitory concentration (IC50) was calculated with GraphPad Prism software using the sigmoidal dose-response function.
(§1) ATDC5 cell line was purchased from Riken BioResource Center (Tsukuba, Japan) and grown in a 1:1 mixture of DMEM/F12 medium (Corning, 10-092-CVR) supplemented with 5% fetal bovine serum (Gibco, 10099, USA) and 1% penicillin-streptomycin solution (Life Technologies). Cells were maintained at 37 °C under 5% CO2. Primary chondrocytes were obtained from knee joint cartilage of newborn mice. Knee joints were dissected from the tibia plateau and femoral condyle articular cartilage of mouse pups and digested in 0.1% collagenase type II (Sigma) overnight at 37 °C and chondrocytes were harvested by centrifugation. Primary chondrocytes were cultured at a density of 5 × 10^3 cells per ml at 37 °C with 5% CO2. DMEM/F12 medium with 10% fetal bovine serum (FBS) and 1% penicillin–streptomycin was used to culture the primary chondrocytes. Chondrogenic differentiation were induced with chondrogenic medium, which contains insulin-transferrin-selenium (ITS) (Sigma, I3146), 10 ng/ml TGF-β3 (PEPROTECH, 100-36E, USA), 100 nM Dexamethasone (Sigma, D4902), 50 μg/ml VC (Sigma), 1 mM sodium pyruvate (Sigma) and 40 μg/ml proline (Sigma), and/or treatment with rmIL-1β (R&D, 401-ML/CF), TNFα (PEPROTECH, 300-01A-50) in DMEM/F12 for indicated days. Western blotting was performed according to standard protocols. Antibodies used were: rabbit anti-Mmp3 (1:1000, HuaBio), rabbit anti-Mmp13 (1:500, abcam, ab39012), rabbit anti-p-CREB (1:2000, Cell Signaling Technology, 87G3), rabbit anti-CREB (1:2000, Cell Signaling Technology, 48H2), mouse anti-GAPDH (1:5000; Sigma-Aldrich, G8795), rabbit anti-Col2 (Abcam, Ab34712), rabbit anti-STAT3 (1:2000; Abcam, ab68153), rabbit anti-p-STAT3 (Y705) (1:2000; Abcam, ab76315), rabbit anti -p65 (1:1000; CST, 3034), rabbit anti-p-p65 (1:1000; CST, 3033), and rabbit anti-IκBα (1:1000; Abways, CY5026).

Series [2] in a line: Preliminary pharmacokinetic studies in CD1 mice. It is filed as in vivo. As for the experimental part: To evaluate the preclinical pharmacokinetic (PK) profiles of compound HL-43 and HL-66, 36 male CD1 mice were randomly divided into four groups for PK studies. […] Blood samples were collected at 0.083, 0.25, 0.5, 1, 2, 4, 8, 12, and 24 h after administration (n = 3). Then the whole blood was centrifuged at 5500 × g for 15 min at 4 °C. After suitable sample preparation, the concentration of HL-43 and HL-66 in plasma sample was determined by Agilent HPLC-MS/MS system (Agilent Technologies, USA). Pharmacokinetic parameters were calculated by WinNonlin software version 7.0 based on non-compartmental analysis (Pharsight Corporation, Mountain View, USA). Mean plasma concentration-time curves were plotted by GraphPad Prism 7.0 (GraphPad Software Inc., CA, USA).

Series [3] deals with Col2a1, Acan, Mmp3, Mmp9, Mmp13 expression in primary mouse chondrocytes. As to the kind of experiment: qRT-PCR of anabolic and catabolic factors in primary chondrocytes. It is filed as cell-based. The following applies: primary murine chondrocytes, 1 ng/ml IL-1β, 24 hr. The method, then:
as §1
Quantitative RT-PCR was performed to measure the relative mRNA levels. RNA samples were prepared from the chondrocytes using Trizol (Takara). cDNA was generated using the Prime Script RT reverse transcriptase kit (Yeasen, Drr036a). Primers used for amplification were shown in Supplementary Table S1, GAPDH was used as the house keeping gene.
Background: In qPCR the cycle at which signal appears reflects the starting amount.

For another series, the system named is zebrafish embryos. As to the kind of experiment: Zebrafish embryo toxicity assay. Set-up: Mortality / Deformities / Hatching: dose or concentration left out as unconfirmed. The following applies: for Mortality: zebrafish embryos; for Deformities / Hatching: zebrafish.
A further series relates to CRE-Luc in ATDC5 cells. As to the kind of experiment: CRE-Luc luciferase reporter assay. It is filed as cell-based, mouse. The following applies: 10 μM H89, 30 μM HL-43, 2 ng/ml IL-1β, 6 h. As for the experimental part: Six firefly luciferase reporters were used in the Luciferase assay, including CRE-Luc (PathDetect CRE cis-Reporting System; Stratagene, La Jolla CA) driven by a basic promoter (TATA box) plus four repeats of CRE; Sox9 promoter-Luc contains human SOX9 proximal promoter region (−1034 bp to +67 bp)[45]; 4 × 48-p89-Luc, mouse Col2a1 minimal promoter. AP-1-Luc, Nf-κb-Luc, STAT-Luc were obtained from Stratagene. Chondrocytes were cultured in 24-well plates and 300 ng firefly luciferase reporter constructs were transiently transfected using transfection reagent TransExellent-DNA (Cenji Biotech Inc, China) following manufacturer’s instruction, and 15 ng of the Copia-Renilla luciferase reporter was co-transfected as a normalization control. […] The Dual-Luciferase measurements were performed in triplicate using the Luciferase assay kit (Promega) and a LUMIstar Omega luminometer (BMG Labtech, Mornington, Australia).
(Reporter assays use an easily measured gene product as a stand-in for the process of interest.)

The test system of series [4] is Sox9 promoter-Luc in ATDC5 cells. As to the kind of experiment: Sox9 promoter-Luc luciferase reporter assay. It is filed as cell-based, mouse. The following applies: 10 μM H89, 30 μM HL-43, 6 h. The method, then:
Six firefly luciferase reporters were used in the Luciferase assay, including CRE-Luc (PathDetect CRE cis-Reporting System; Stratagene, La Jolla CA) driven by a basic promoter (TATA box) plus four repeats of CRE; Sox9 promoter-Luc contains human SOX9 proximal promoter region (−1034 bp to +67 bp)[45]; 4 × 48-p89-Luc, mouse Col2a1 minimal promoter. AP-1-Luc, Nf-κb-Luc, STAT-Luc were obtained from Stratagene. Chondrocytes were cultured in 24-well plates and 300 ng firefly luciferase reporter constructs were transiently transfected using transfection reagent TransExellent-DNA (Cenji Biotech Inc, China) following manufacturer’s instruction, and 15 ng of the Copia-Renilla luciferase reporter was co-transfected as a normalization control. Cells were treated with the indicated reagents for 48 h after transfection. The Dual-Luciferase measurements were performed in triplicate using the Luciferase assay kit (Promega) and a LUMIstar Omega luminometer (BMG Labtech, Mornington, Australia).

Each structure is given as a SMILES string. Like-named read-outs stand apart in the source and are kept apart here.

Results on 3 molecules are retold here after PMC8901748, “A novel prostaglandin E receptor 4 (EP4) small molecule antagonist induces articular cartilage regeneration” (Cell Discovery, 2022).

Method for zebrafish embryos: A breeding stock of zebrafish at the age of 6–24 months is used for egg production. Fertilized eggs were collected and viable eggs were transferred to the 12-well plate at 26 °C. Fertilized eggs between the 4-cell and 128-cell stages be used for the toxicity test, with ten fertilized eggs per concentration and three replicates of each concentration, a total of 30 eggs for each concentration. […] DMSO was added as vehicle control. Hatching, morphological abnormalities and survival were assessed 24 and 72 h of post-fertilization (dpf) in zebrafish exposed to the chemicals.

Usually IC50 stands for the midpoint of a concentration-inhibition curve. As usually defined, the Cmax is the highest concentration seen after dosing. As to `Cc1ccc(-c2nnn(CCOc3ccc(F)cc3)c2C(=O)N[C@@H](C)c2ccc(C(=O)O)cc2)o1` [HL-66], the IC50 in series [1] was determined as 330 µM. In series [2] (I.V. (5 mg/kg)), the “AUC0-∞” value was 1236.5 ng·h/mL, the C0 worked out at 2557.7 ng/mL, the CL turned out to be 13 mL/min/kg and the Vd is 3.7 L/kg. In series [2] (I.V. (5 mg/kg)), the t1/2 turned out to be 3.2 h. In series [2] (P.O. (1 mg/kg)), the “AUC0-∞” value is 672.5 ng·h/mL, the CL turned out to be 123 mL/min/kg, the Cmax was 286.0 ng/mL and the Vd came to 26.7 L/kg. For the same molecule, the t1/2 in series [2] (P.O. (1 mg/kg)) turned out to be 2.5 h. In series [2] (oral), this molecule yielded a Bioavailability of 10.9%. Also, in series [3] (EP4 antagonists (2 nM)), the “Col2a1 expression (screen of EP4 antagonists)” value is reported as “highest potency in inducing Col2a1 expression”. In addition, the “Mmp3 expression (screen of EP4 antagonists)” value in series [3] (EP4 antagonists (30 μM)) is recorded as “reducing Mmp3 expression”.

Take `Cc1ccc(-c2cc(C(F)(F)F)nn2-c2ccc(S(N)(=O)=O)cc2)cc1` [Celecoxib]: in series [1] (Mus musculus, Chondrocyte), the concentration for half-maximal inhibition (IC50) came out at 34.7 µM. Also, the Mortality in the series on zebrafish embryos (24hpf, 0.03, n=30) was 0/30; in the series with zebrafish embryos (24hpf, 0.1, n=30), 7/30; in the series with zebrafish embryos (24hpf, 0.3, n=30), 12/30; with zebrafish embryos (24hpf, 1, n=30), 18/30. Further, the Deformities in the series with zebrafish embryos (72hpf, 0.03, n=30) is listed as 4/30; in the series with zebrafish embryos (72hpf, 0.1, n=30) it was 3/30; with zebrafish embryos (72hpf, 0.3, n=30), 7/30; in the series on zebrafish embryos (72hpf, 1, n=30), 2/30. In addition, the Hatching is recorded as 12/30 with zebrafish embryos (72hpf, 0.03, n=30); 8/30 with zebrafish embryos (72hpf, 0.1, n=30); 13/30 in the series on zebrafish embryos (72hpf, 0.3, n=30); 3/30 in the series with zebrafish embryos (72hpf, 1, n=30).

As for `O=S(=O)(NCCNC/C=C/c1ccc(Br)cc1)c1cccc2cnccc12` [H89, reference compound], the “HL-43-induced CRE luciferase reporter activity” value in the series with CRE-Luc in ATDC5 cells is “completely abolished”. The “HL-43-induced Sox9 promoter luciferase reporter activity” value in series [4] is listed as “completely abolished”.
